# Data from US20260193268A1, “TRICYCLIC PI3Ka INHIBITOR, PREPARATION METHOD THEREFOR, AND PHARMACEUTICAL USE THEREOF” (WIGEN BIOMEDICINE TECHNOLOGY (SHANGHAI) CO., LTD., priority 2022, published 2026).
# Like-named read-outs stand apart in the source and are kept apart here.
# How the values were obtained:
# [1] = system: HCC1954 cells (with PI3Kα H1047R mutation); assay: In vitro inhibition of HCC1954 cell proliferation (CellTiter-Lumi); type: cell-based; settings: HCC1954 cells, 144 h, CellTiter-Lumi
# Protocol: Assay for In Vitro Inhibition of HCC1954 Cell Proliferation by Compounds of the Present Disclosure
# The growth of the cells was evaluated, and the IC50 for the inhibition of cell growth by the compounds was calculated.
# [2] = system: MCF-7 cells (with PI3Kα E545K mutation); assay: In vitro inhibition of MCF-7 cell proliferation (CellTiter-Lumi); type: cell-based
# Outline: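 Growth IC50 derived from ATP luminescence (CellTiter-Lumi) after 144 h exposure of MCF-7 cells carrying PI3Kα E545K, plated 2000 cells/well and dosed with serial dilutions one day after seeding.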
# [3] = Homo sapiens, HCC1954, 144 h, class symbols, read-out: Inhibitory activity against HCC1954 cells (IC50), class symbols
# [4] = Homo sapiens, MCF7, 144 h, class symbols, read-out: Inhibitory activity against MCF-7 cells (IC50), class symbols
SMILES,"IC50 [1, 3]","IC50 [2, 4]","IC50 ([1]; numeric values, read-out: Inhibitory activity against HCC1954 cells (IC50))","IC50 ([2]; 144 h, numeric values, read-out: Inhibitory activity against MCF-7 cells (IC50))"
COCCN1CCN(C(C)(C)C=C(C#N)C(=O)Nc2ccc(N3CC(N4CCN(c5ccc6c(c5)-c5nc(N7C(=O)OC[C@H]7C(F)F)cn5CCO6)CC4)C3)cc2)CC1 [Compound 305],< 50 nM,< 50 nM,,
CC(C)(C=C(C#N)C(=O)Nc1ccc(N2CC(N3CCN(c4ccc5c(c4)-c4nc(N6C(=O)OC[C@H]6C(F)F)cn4CCO5)CC3)C2)cc1)N1CCNCC1 [Compound 306],< 50 nM,< 50 nM,,
CN1CCN(C(C)(C)C=C(C#N)C(=O)Nc2ccc(N3CC(N4CCN(c5ccc6c(c5)-c5nc(N7C(=O)OC[C@H]7C(F)F)cn5CCO6)CC4)C3)cc2)CC1 [Compound 307],< 50 nM,< 50 nM,,
CN1CCN(C(C)(C)C=C(C#N)C(=O)Nc2ccc(N3CC(N4CCN(c5ccc6c(c5)-c5nc(N7C(=O)OC[C@H]7C(F)F)cn5CCO6)CC4)C3)cc2)CC1=O [Compound 308],< 50 nM,< 50 nM,,
CC1CN(C(C)(C)C=C(C#N)C(=O)Nc2ccc(N3CC(N4CCN(c5ccc6c(c5)-c5nc(N7C(=O)OC[C@H]7C(F)F)cn5CCO6)CC4)C3)cc2)CC(C)N1 (stereo partly shown) [Compound 309],< 50 nM,< 50 nM,,
CC(=O)N1CCN(C(C)(C)C=C(C#N)C(=O)Nc2ccc(N3CC(N4CCN(c5ccc6c(c5)-c5nc(N7C(=O)OC[C@H]7C(F)F)cn5CCO6)CC4)C3)cc2)CC1 [Compound 310],< 50 nM,< 50 nM,,
COC(=O)N1CCN(C(C)(C)C=C(C#N)C(=O)Nc2ccc(N3CC(N4CCN(c5ccc6c(c5)-c5nc(N7C(=O)OC[C@H]7C(F)F)cn5CCO6)CC4)C3)cc2)CC1 [Compound 311],< 50 nM,< 50 nM,,
CC(C)(C=C(C#N)C(=O)Nc1ccc(N2CC(N3CCN(c4ccc5c(c4)-c4nc(N6C(=O)OC[C@H]6C(F)F)cn4CCO5)CC3)C2)cc1)N1CCC2(CC1)COC2 [Compound 312],< 50 nM,< 50 nM,,
CC(C)(C=C(C#N)C(=O)Nc1ccc(N2CC(N3CCN(c4ccc5c(c4)-c4nc(N6C(=O)OC[C@H]6C(F)F)cn4CCO5)CC3)C2)cc1)N1CC2(CCOCC2)C1 [Compound 313],< 50 nM,< 50 nM,,
CC(C)(C=C(C#N)C(=O)Nc1ccc(N2CC(N3CCN(c4ccc5c(c4)-c4nc(N6C(=O)OC[C@H]6C(F)F)cn4CCO5)CC3)C2)cc1)N1CC(C2COC2)C1 [Compound 314],< 50 nM,< 50 nM,,
CC(C)(C)C=C(C#N)C(=O)Nc1ccc(N2CC(N3CCN(c4cc5c(cc4F)OCCn4cc(N6C(=O)OC[C@H]6C(F)F)nc4-5)CC3)C2)cc1 [Compound 315],< 50 nM,< 50 nM,,
CC(C)(C)C=C(C#N)C(=O)Nc1ccc(N2CC(N3CCN(c4cc(F)c5c(c4)-c4nc(N6C(=O)OC[C@H]6C(F)F)cn4CCO5)CC3)C2)cc1 [Compound 316],< 50 nM,< 50 nM,,
CC(C)(C)C=C(C#N)C(=O)Nc1ccc(N2CC(N3CCN(c4cc5c(cc4O)OCCn4cc(N6C(=O)OC[C@H]6C(F)F)nc4-5)CC3)C2)cc1 [Compound 317],< 50 nM,< 50 nM,,
COc1cc2c(cc1N1CCN(C3CN(c4ccc(NC(=O)C(C#N)=CC(C)(C)C)cc4)C3)CC1)-c1nc(N3C(=O)OC[C@H]3C(F)F)cn1CCO2 [Compound 318],< 50 nM,< 50 nM,,
CNc1cc2c(cc1N1CCN(C3CN(c4ccc(NC(=O)C(C#N)=CC(C)(C)C)cc4)C3)CC1)-c1nc(N3C(=O)OC[C@H]3C(F)F)cn1CCO2 [Compound 319],< 50 nM,< 50 nM,,
Cc1cc2c(cc1N1CCN(C3CN(c4ccc(NC(=O)C(C#N)=CC(C)(C)C)cc4)C3)CC1)-c1nc(N3C(=O)OC[C@H]3C(F)F)cn1CCO2 [Compound 320],< 50 nM,< 50 nM,,
CC(C)(C)C=C(C#N)C(=O)Nc1ccc(N2CC(N3CCN(c4ccc5c(c4)-c4nc(N6C(=O)OC[C@H]6C(F)F)c(F)n4CCO5)CC3)C2)cc1 [Compound 321],< 50 nM,< 50 nM,,
CC(C)(C)C=C(C#N)C(=O)Nc1ccc(N2CC(N3CCN(c4ccc5c(c4)-c4nc(N6C(=O)OC[C@H]6C(F)F)c(C6CC6)n4CCO5)CC3)C2)cc1 [Compound 322],< 50 nM,< 50 nM,,
Cc1c(N2C(=O)OC[C@H]2C(F)F)nc2n1CCOc1ccc(N3CCN(C4CN(c5ccc(NC(=O)C(C#N)=CC(C)(C)C)cc5)C4)CC3)cc1-2 [Compound 323],< 50 nM,< 50 nM,,
CC(C)(C=C(C#N)C(=O)Nc1ccc(N2CC(N3CCN(c4ccc5c(c4)-c4nc(N6C(=O)OC[C@H]6C(F)F)cn4CCO5)CC3)C2)cc1)NC(=O)OC(C)(C)C [Compound 324A],,,0.1 nM,0.1 nM
